The source of these data is US9096548B2, “Pyrazine amide compounds” (Boehringer Ingelheim International GmbH, priority 2013, dated 2015).

SMILES strings stand for the structures. Counter-ions that a name gives are not always drawn.

The first assay has as its target T1, ENaC (Epithelial Sodium Channel) (Mus musculus, UniProt Q61180+Q9WU38+Q9WU39).
T1 construct: Mouse kidney M−1 cells were cultivated in DMEM; endogenous in cells; host or cells: Mouse kidney M-1 cells, cultivated with dexamethasone on transwell filters
T1 sequence (Q61180 1-699): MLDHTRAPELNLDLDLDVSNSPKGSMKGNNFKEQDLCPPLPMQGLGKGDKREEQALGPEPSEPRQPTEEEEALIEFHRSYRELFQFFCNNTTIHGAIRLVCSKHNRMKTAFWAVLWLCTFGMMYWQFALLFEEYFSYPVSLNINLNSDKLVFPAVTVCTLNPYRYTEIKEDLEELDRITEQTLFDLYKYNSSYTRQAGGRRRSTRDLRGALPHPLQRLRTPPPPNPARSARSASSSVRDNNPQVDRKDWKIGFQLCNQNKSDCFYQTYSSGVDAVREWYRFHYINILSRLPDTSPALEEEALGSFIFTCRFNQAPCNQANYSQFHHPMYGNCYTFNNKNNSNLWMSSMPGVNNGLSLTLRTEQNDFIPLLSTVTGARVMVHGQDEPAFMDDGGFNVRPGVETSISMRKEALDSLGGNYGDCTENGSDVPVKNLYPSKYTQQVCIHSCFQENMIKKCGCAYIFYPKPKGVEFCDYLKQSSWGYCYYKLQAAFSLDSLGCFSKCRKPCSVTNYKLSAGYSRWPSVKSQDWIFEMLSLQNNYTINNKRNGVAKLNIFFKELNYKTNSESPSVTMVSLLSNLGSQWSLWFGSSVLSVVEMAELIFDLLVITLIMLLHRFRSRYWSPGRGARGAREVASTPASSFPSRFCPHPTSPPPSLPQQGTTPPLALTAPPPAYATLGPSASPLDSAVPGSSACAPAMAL
T1 sequence (Q9WU38 1-638): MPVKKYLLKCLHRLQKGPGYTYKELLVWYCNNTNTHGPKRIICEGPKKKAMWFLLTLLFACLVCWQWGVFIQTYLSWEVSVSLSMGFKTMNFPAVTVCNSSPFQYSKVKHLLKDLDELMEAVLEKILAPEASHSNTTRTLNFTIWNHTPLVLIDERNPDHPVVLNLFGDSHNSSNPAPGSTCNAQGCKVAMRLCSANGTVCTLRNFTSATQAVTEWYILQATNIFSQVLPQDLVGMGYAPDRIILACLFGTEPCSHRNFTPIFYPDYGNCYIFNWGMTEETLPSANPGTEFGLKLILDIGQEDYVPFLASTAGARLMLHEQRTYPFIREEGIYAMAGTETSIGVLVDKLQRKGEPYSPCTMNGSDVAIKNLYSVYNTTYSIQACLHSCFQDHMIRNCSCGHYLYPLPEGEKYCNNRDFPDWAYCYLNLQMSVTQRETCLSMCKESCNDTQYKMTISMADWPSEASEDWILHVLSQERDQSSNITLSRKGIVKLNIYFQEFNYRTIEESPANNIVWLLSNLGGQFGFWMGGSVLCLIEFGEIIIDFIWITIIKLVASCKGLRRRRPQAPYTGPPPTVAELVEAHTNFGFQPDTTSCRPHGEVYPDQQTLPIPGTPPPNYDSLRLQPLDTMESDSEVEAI
T1 sequence (Q9WU39 1-655): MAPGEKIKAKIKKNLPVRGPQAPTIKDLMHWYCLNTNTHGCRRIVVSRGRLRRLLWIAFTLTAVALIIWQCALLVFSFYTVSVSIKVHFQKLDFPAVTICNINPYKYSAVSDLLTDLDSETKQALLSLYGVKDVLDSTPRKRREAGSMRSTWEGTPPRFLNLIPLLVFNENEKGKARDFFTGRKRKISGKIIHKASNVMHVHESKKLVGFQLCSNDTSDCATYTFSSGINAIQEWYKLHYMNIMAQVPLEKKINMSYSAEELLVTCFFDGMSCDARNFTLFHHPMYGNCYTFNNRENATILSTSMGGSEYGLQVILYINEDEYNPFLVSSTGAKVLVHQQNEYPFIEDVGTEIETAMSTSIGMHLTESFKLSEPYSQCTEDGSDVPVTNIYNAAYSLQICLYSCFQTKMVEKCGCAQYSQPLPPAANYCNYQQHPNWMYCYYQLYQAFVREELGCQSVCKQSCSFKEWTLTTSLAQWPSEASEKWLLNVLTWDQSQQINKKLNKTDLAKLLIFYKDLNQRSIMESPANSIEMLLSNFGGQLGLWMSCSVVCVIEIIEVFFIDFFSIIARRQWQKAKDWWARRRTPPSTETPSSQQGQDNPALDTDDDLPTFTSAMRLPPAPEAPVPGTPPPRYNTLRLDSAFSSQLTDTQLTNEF
As to the kind of experiment: Ussing Chamber assay (short circuit current, amiloride sensitive I_SC). In kind it is cell-based. The following applies: Ussing chamber, mouse kidney M-1 cells, short circuit current, compound added to the apical solution; read-out: IC50. Here is the method:
The IC50 values of the example compounds given above were determined in the Ussing Chamber assay.
Ussing Chamber: Mouse kidney M−1 cells were cultivated in DMEM containing 5% FCS and 5 μM dexamethasone for 10 to 12 days on polyester transwell filters. Filters were inserted into a teflon-coated well-plate which fit into the ussing chamber system. Prior to measurement the medium of M−1 cells was replaced with Caco-2 transport buffer (Invitrogen, Germany). During measurements, the Ussing chamber temperature was kept at 37° C. Short circuit currents (I_sc) were measured in the voltage-clamp mode with the software package Lab View for data acquisition and analysis. The transepithelial electrical resistance (TEER) was determined by the application of voltage steps of ±5 mV every 5 sec. Compounds were administered at a final concentration of 3 μM or at increasing concentrations (1-3-10 μM) to the apical solution. At the end of each experiment the amiloride sensitive I_SC was measured by adding 3 μM amiloride to the apical compartment. Results are expressed as inhibition in percent of the amiloride effect or as IC50.
For `COCCNC(=O)COc1ccc(CCC[N+]2(CCCc3ccc(OCC(=O)NCCOC)cc3)CCC[C@H](NC(=O)c3nc(Cl)c(N)nc3N)C2)cc1` [Example 6.59], the IC50 amounted to 0.012 µM.
Still for that read-out and setting: next, `COc1ccc(CCC[N@@+]2(C)CCC[C@H](NC(=O)c3nc(Cl)c(N)nc3N)C2)cc1` [Example 3.2]: 0.07 µM; `CN1CCC(NC(=O)COc2ccc(CCC[N+]3(CCCc4ccc(OCC(=O)NC5CCN(C)CC5)cc4)CCC[C@H](NC(=O)c4nc(Cl)c(N)nc4N)C3)cc2)CC1` [Example 6.13]: 0.015 µM.
For the compound `CN(CC#N)C(=O)COc1ccc(CCC[N+]2(CCCc3ccc(OCC(=O)N(C)CC#N)cc3)CCC[C@H](NC(=O)c3nc(Cl)c(N)nc3N)C2)cc1` [Example 6.65], the IC50 was 0.094 µM.
On the same count and under the same terms, next, `Nc1nc(N)c(C(=O)N[C@H]2CCC[N+](CCCc3ccc(OCC(=O)NCCN4CCCC4=O)cc3)(CCCc3ccc(OCC(=O)NCCN4CCCC4=O)cc3)C2)nc1Cl` [Example 6.35]: 0.016 µM; `Nc1nc(N)c(C(=O)N[C@H]2CCC[N+](CCCc3ccc(OCC(=O)N4CC[S+]([O-])CC4)cc3)(CCCc3ccc(OCC(=O)N4CC[S+]([O-])CC4)cc3)C2)nc1Cl` [Example 6.30]: 0.209 µM; `Nc1nc(N)c(C(=O)N[C@H]2CCC[N+](CCCc3ccc(OCC(=O)NCCCCO)cc3)(CCCc3ccc(OCC(=O)NCCCCO)cc3)C2)nc1Cl` [Example 6.25]: 0.014 µM.
As to `Nc1nc(N)c(C(=O)N[C@H]2CCC[N+](CCCc3ccc(OCC(=O)NC4CCS(=O)(=O)C4)cc3)(CCCc3ccc(OCC(=O)NC4CCS(=O)(=O)C4)cc3)C2)nc1Cl` (some centres unmarked) [Example 6.23], the IC50 stood at 0.035 µM.
On to `CP(C)(=O)CNC(=O)COc1ccc(CCC[N+]2(CCCc3ccc(OCC(=O)NCP(C)(C)=O)cc3)CCC[C@H](NC(=O)c3nc(Cl)c(N)nc3N)C2)cc1` [Example 6.67], for which the IC50 is 0.131 µM.
As to `COc1ccc(CCC[N+]2(CCCc3ccc(C(=O)N(CCCN(C)C)CCCN(C)C)cc3)CCCC(NC(=O)c3nc(Cl)c(N)nc3N)C2)cc1` (centres unmarked) [Example 5.3], the IC50 was 0.055 µM.
For `COC(=O)COc1ccc(CCC[N+]2(CCCc3ccc(OCC(=O)OC)cc3)CCC[C@H](NC(=O)c3nc(Cl)c(N)nc3N)C2)cc1` [Example 6.11], the IC50 worked out at 0.045 µM.
Still for that read-out and setting: next, `Nc1nc(N)c(C(=O)N[C@H]2CCC[N+](CCCc3ccc(OCC(=O)N(CCO)CCO)cc3)(CCCc3ccc(OCC(=O)N(CCO)CCO)cc3)C2)nc1Cl` [Example 6.66]: 0.121 µM.
Turning to `CS(=O)(=O)CCNC(=O)COc1ccc(CCC[N+]2(CCCc3ccc(OCC(=O)NCCS(C)(=O)=O)cc3)CCC[C@H](NC(=O)c3nc(Cl)c(N)nc3N)C2)cc1` [Example 6.37], the IC50 worked out at 0.028 µM.
`Nc1nc(N)c(C(=O)N[C@H]2CCC[N+](CCCc3ccc(OCC(=O)NCCc4cccnc4)cc3)(CCCc3ccc(OCC(=O)NCCc4cccnc4)cc3)C2)nc1Cl` [Example 6.51]: the IC50 stood at 0.005 µM.
For `CN(C)C(=O)COc1ccc(CCC[N+]2(CCCc3ccc(OCC(=O)N(C)C)cc3)CCC[C@H](NC(=O)c3nc(Cl)c(N)nc3N)C2)cc1` [Example 6.12], the IC50 was found to be 0.134 µM.
As for `Nc1nc(N)c(C(=O)N[C@H]2CCC[N+](CCCc3ccc(OCC(=O)NCc4cccnc4)cc3)(CCCc3ccc(OCC(=O)NCc4cccnc4)cc3)C2)nc1Cl` [Example 6.57], the 50% inhibitory concentration (IC50) was found to be 0.004 µM.
On to `Nc1nc(N)c(C(=O)N[C@H]2CCC[N+](CCCc3ccc(OCC(=O)NCc4ccncc4)cc3)(CCCc3ccc(OCC(=O)NCc4ccncc4)cc3)C2)nc1Cl` [Example 6.64], for which the IC50 turned out to be 0.004 µM.
Still for that read-out and setting: next, `Nc1nc(N)c(C(=O)N[C@H]2CCC[N+](CCCc3ccc(OCC(=O)N4CCn5ccnc5C4)cc3)(CCCc3ccc(OCC(=O)N4CCn5ccnc5C4)cc3)C2)nc1Cl` [Example 6.44]: 0.088 µM; `COc1ccc(CCC[N+]2(CCCc3ccc(OC)cc3)CCC[C@H](NC(=O)c3nc(Cl)c(N)nc3N)C2)cc1` [Example 1.4]: 0.004 µM.
Same read-out and setting: the figure for `COCCCN(C)C(=O)COc1ccc(CCC[N+]2(CCCc3ccc(OCC(=O)N(C)CCCOC)cc3)CCC[C@H](NC(=O)c3nc(Cl)c(N)nc3N)C2)cc1` [Example 6.34] is 0.044 µM.
`Nc1nc(N)c(C(=O)N[C@H]2CCC[N+](CCCc3ccc(OCC(=O)NC(CO)c4cccnc4)cc3)(CCCc3ccc(OCC(=O)NC(CO)c4cccnc4)cc3)C2)nc1Cl` (some centres unmarked) [Example 6.39]: the IC50 was 0.011 µM.
As to `Nc1nc(N)c(C(=O)NC2CCC[N+](CCCc3ccccc3)(CCCc3ccccc3)C2)nc1Cl` (centres unmarked) [Example 10.4, 3-[(3,5-Diamino-6-chloro-pyrazine-2-carbonyl)-amino]-1,1-bis-(3-phenyl-propyl)-piperidinium chloride], the IC50 came out at 0.015 µM.

The assay is the same for the next values; noted with them: Ussing chamber, mouse kidney M-1 cells, short circuit current; unit inferred; read-out: IC50.
For `COC(=O)C[C@@H](C[N+](C)(CCCc1ccc(OC)cc1)CCCc1ccc(OC)cc1)NC(=O)c1nc(Cl)c(N)nc1N` [Example 7, {(S)-2-[(3,5-Diamino-6-chloro-pyrazine-2-carbonyl)-amino]-3-methoxycarbonyl-propyl}-bis-[3-(4-methoxy-phenyl)-propyl]-methyl-ammonium chloride], the IC50 was determined as 0.021 µM.
For `Nc1nc(N)c(C(=O)N[C@H]2CCC[N+](CCCc3ccc(OCCO)cc3)(CCCc3ccc(OCCO)cc3)C2)nc1Cl` [Example 9.6, (S)-3-[(3,5-Diamino-6-chloro-pyrazine-2-carbonyl)-amino]-1,1-bis-{3-[4-(2-hydroxyethoxy)-phenyl]-propyl}-piperidinium chloride], the IC50 was 0.038 µM.
As for `COC(=O)COc1ccc(CCC[N+]2(CCCc3ccc(OCC(=O)NCCN(C)C)cc3)CCCC(NC(=O)c3nc(Cl)c(N)nc3N)C2)cc1` (centres unmarked) [Example 8.1, 3-[(3,5-Diamino-6-chloro-pyrazine-2-carbonyl)-amino]-1-(3-{4-[(2-dimethylaminoethylcarbamoyl)-methoxy]-phenyl}-propyl)-1-[3-(4-methoxycarbonylmethoxy-phenyl)-propyl]-piperidinium chloride hydrochloride], the IC50 was found to be 0.085 µM.

Still in this assay, the particulars now being: Ussing chamber, mouse kidney M-1 cells, short circuit current; value printed in the example text with μM; read-out: IC50.
For `COC(=O)c1ccc(CCC[N+]2(CCCc3ccc(OC)cc3)CCCC(NC(=O)c3nc(Cl)c(N)nc3N)C2)cc1` (centres unmarked) [Example 5, 3-[(3,5-Diamino-6-chloro-pyrazine-2-carbonyl)-amino]-1-[3-(4-methoxycarbonyl-phenyl)propyl]-1-[3-(4-methoxy-phenyl)-propyl]-piperidinium chloride], the IC50 was 0.038 µM.

The IC50 is the point on the concentration scale where inhibition reaches its midpoint.
